Source: patent publication US20250163048A1 (Tango Therapeutics, Inc., priority 2022, published 2025)
Like-named read-outs stand apart in the source and are kept apart here.

Key:
[1] = tested on: HAP1 MTAP-deleted cell line; assay: SDMA in-cell western assay, HAP1 MTAP-deleted; conditions: for IC50 / IC90: Homo sapiens; for IC50: HAP1, read-out: Hap1 MTAP deleted IC50, SDMA in-cell western, HAP1 MTAP-deleted cell line; for IC90: HAP1, read-out: Hap1 MTAP deleted IC90, SDMA in-cell western, HAP1 MTAP-deleted cell line; for Hap1 MTAP intact/deleted ratio: IC50 ratio between HAP1 MTAP-intact and HAP1 MTAP-deleted cell line, SDMA in-cell western
[2] = tested on: HAP1 MTAP-intact cell line; assay: SDMA in-cell western assay, HAP1 MTAP-intact; conditions: Homo sapiens
MTAP-deleted cell line = assay: viability assay for the MTAP-deleted cell line; assay type: cell-based; conditions: Homo sapiens, HAP1, viability assay
[3] = HAP1, read-out: Hap1 MTAP intact IC50, SDMA in-cell western, HAP1 MTAP-intact cell line

| Compound | IC50 [1] [nM] | IC90 [1] [nM] | Hap1 MTAP intact/deleted ratio [1] | IC50 [2, 3] [nM] | IC50 (MTAP-deleted cell line) [nM] | IC50 ([2]; HAP1, read-out: Hap1 MTAP intact IC50) [nM] |
| --- | --- | --- | --- | --- | --- | --- |
| C[C@H]1CC[C@H](c2cccc(C(F)(F)F)c2)N(C(=O)C(=O)Nc2cnc(N)c3cn[nH]c23)C1 [Compound 138, N-(4-amino-1H-pyrazolo[4,3-c]pyridin-7-yl)-2-((2R,5S)-5-methyl-2-(3-(trifluoromethyl)phenyl)piperidin-1-yl)-2-oxoacetamide] | 5 to 50 | < 75 | A (“A” indicates an IC50 ratio greater than or equal to 30 fold) | > 50 | < 100 |  |
| C[C@H]1CC[C@H](c2ccc3cn([C@@H]4CCN(C)C4)nc3c2)N(C(=O)C(=O)Nc2cncc3cn[nH]c23)C1 [Compound 141, 2-((2R,5S)-5-methyl-2-(2-((R)-1-methylpyrrolidin-3-yl)-2H-indazol-6-yl)piperidin-1-yl)-2-oxo-N-(1H-pyrazolo[4,3-c]pyridin-7-yl)acetamide] | < 5 | < 75 | A (“A” indicates an IC50 ratio greater than or equal to 30 fold) | > 50 | < 100 |  |
| C[C@H]1CC[C@H](c2ccc3sc(CC4(C)CCN(C)CC4)nc3c2)N(C(=O)C(=O)Nc2cncc3cn[nH]c23)C1 [Compound 142, 2-((2R,5S)-2-(2-((1,4-dimethylpiperidin-4-yl)methyl)benzo[d]thiazol-5-yl)-5-methylpiperidin-1-yl)-2-oxo-N-(1H-pyrazolo[4,3-c]pyridin-7-yl)acetamide] | < 5 | < 75 | B (“B” indicates an IC50 ratio greater than or equal to 15 fold but lower than 30 fold) | 5 to 50 | < 100 |  |
| C[C@H]1CC[C@H](c2ccc3sc(C4CCOCC4)nc3c2)N(C(=O)C(=O)Nc2cnc(N)c3cn[nH]c23)C1 [Compound 143, N-(4-amino-1H-pyrazolo[4,3-c]pyridin-7-yl)-2-((2R,5S)-5-methyl-2-(2-(tetrahydro-2H-pyran-4-yl)benzo[d]thiazol-5-yl)piperidin-1-yl)-2-oxoacetamide] | < 5 | < 75 | C (“C” indicates an IC50 ratio of less than 15 fold) | 5 to 50 | < 100 |  |
| COc1cc([C@H]2CC[C@H](C)CN2C(=O)C(=O)Nc2cnc(N)c3cn[nH]c23)ccn1 [Compound 145, N-(4-amino-1H-pyrazolo[4,3-c]pyridin-7-yl)-2-oxo-2-[(2R,5S)-2-(2-methoxy-4-pyridyl)-5-methyl-1-piperidyl]acetamide] | < 5 | < 75 | B (“B” indicates an IC50 ratio greater than or equal to 15 fold but lower than 30 fold) | 5 to 50 | < 100 |  |
| CNc1ncc(NC(=O)C(=O)N2C[C@@H](C)CC[C@@H]2c2ccc3scnc3c2)c2[nH]ncc12 [Compound 146, 2-((2R,5S)-2-(benzo[d]thiazol-5-yl)-5-methylpiperidin-1-yl)-N-(4-(methylamino)-1H-pyrazolo[4,3-c]pyridin-7-yl)-2-oxoacetamide] | 5 to 50 | 75 to 125 | A (“A” indicates an IC50 ratio greater than or equal to 30 fold) | > 50 | 100 to 1000 |  |
| C[C@H]1CC[C@H](c2cccc(OC[C@@H](C)N(C)C)c2)N(C(=O)C(=O)Nc2cnc(N)c3cn[nH]c23)C1 [Compound 149, N-(4-amino-1H-pyrazolo[4,3-c]pyridin-7-yl)-2-((2R,5S)-2-(3-((R)-2-(dimethylamino)propoxy)phenyl)-5-methylpiperidin-1-yl)-2-oxoacetamide] | < 5 | < 75 | C (“C” indicates an IC50 ratio of less than 15 fold) | 5 to 50 | < 100 |  |
| C[C@H]1CC[C@H](c2ccc(F)c(F)c2)N(C(=O)C(=O)Nc2cnc(N)c3cn[nH]c23)C1 [Compound 151, N-(4-amino-1H-pyrazolo[4,3-c]pyridin-7-yl)-2-((2R,5S)-2-(3,4-difluorophenyl)-5-methylpiperidin-1-yl)-2-oxoacetamide] | < 5 | < 75 | A (“A” indicates an IC50 ratio greater than or equal to 30 fold) | > 50 | < 100 |  |
| Cc1cc([C@H]2CC[C@H](C)CN2C(=O)C(=O)Nc2cnc(N)c3cn[nH]c23)cc(C)n1 [Compound 155] | 5 to 50 | 75 to 125 | C (“C” indicates an IC50 ratio of less than 15 fold) | > 50 | < 100 |  |
| C[C@H]1CC[C@H](c2ccc3sc(C4=CCN(C)CC4)nc3c2)N(C(=O)C(=O)Nc2ccn3ccnc3c2)C1 [Compound 157, N-(imidazo[1,2-a]pyridin-7-yl)-2-((2R,5S)-5-methyl-2-(2-(1-methyl-1,2,3,6-tetrahydropyridin-4-yl)benzo[d]thiazol-5-yl)piperidin-1-yl)-2-oxoacetamide] | < 5 | < 75 | A (“A” indicates an IC50 ratio greater than or equal to 30 fold) | > 50 | < 100 |  |
| C[C@H]1CC[C@H](c2ccc3cn(CCN(C)C)nc3c2)N(C(=O)C(=O)Nc2cncc3cn[nH]c23)C1 [Compound 163, 2-oxo-N-(1H-pyrazolo[4,3-c]pyridin-7-yl)-2-[(2R,5S)-2-[2-[2-(dimethylamino)ethyl]indazol-6-yl]-5-methyl-1-piperidyl]acetamide] | < 5 | < 75 | A (“A” indicates an IC50 ratio greater than or equal to 30 fold) | > 50 | < 100 |  |
| C[C@H]1CC[C@H](c2cccc(OC[C@H](C)N(C)C)c2)N(C(=O)C(=O)Nc2cnc(N)c3cn[nH]c23)C1 [Compound 164, N-(4-amino-1H-pyrazolo[4,3-c]pyridin-7-yl)-2-((2R,5S)-2-(3-((S)-2-(dimethylamino)propoxy)phenyl)-5-methylpiperidin-1-yl)-2-oxoacetamide] | < 5 | < 75 | C (“C” indicates an IC50 ratio of less than 15 fold) | 5 to 50 | < 100 |  |
| CC1=C(c2nc3cc([C@H]4CC[C@H](C)CN4C(=O)C(=O)Nc4cncc5cn[nH]c45)ccc3s2)CCN(C)C1 [Compound 165] | < 5 | < 75 | A (“A” indicates an IC50 ratio greater than or equal to 30 fold) | > 50 | < 100 |  |
| C[C@H]1CC[C@H](c2cccc(OCCN(C)C)c2)N(C(=O)C(=O)Nc2cnc(N)c3cn[nH]c23)C1 [Compound 166, N-(4-amino-1H-pyrazolo[4,3-c]pyridin-7-yl)-2-((2R,5S)-2-(3-(2-(dimethylamino)ethoxy)phenyl)-5-methylpiperidin-1-yl)-2-oxoacetamide] | < 5 | < 75 | C (“C” indicates an IC50 ratio of less than 15 fold) | 5 to 50 | < 100 |  |
| Cc1ncc([C@H]2CC[C@H](C)CN2C(=O)C(=O)Nc2cnc(N)c3cn[nH]c23)cc1Cl [Compound 168] | < 5 | < 75 | C (“C” indicates an IC50 ratio of less than 15 fold) | > 50 | < 100 |  |
| C[C@H]1CC[C@H](c2ccc3ccc(C4CCN(C)CC4)nc3c2)N(C(=O)C(=O)Nc2ccn3ccnc3c2)C1 [Compound 170, N-(imidazo[1,2-a]pyridin-7-yl)-2-((2R,5S)-5-methyl-2-(2-(1-methylpiperidin-4-yl)quinolin-7-yl)piperidin-1-yl)-2-oxoacetamide] | 5 to 50 | > 125 | A (“A” indicates an IC50 ratio greater than or equal to 30 fold) | > 50 | < 100 |  |
| C[C@H]1CC[C@H](c2ccc3scnc3c2)N(C(=O)C(=O)Nc2cnc(N)c3[nH]ncc23)C1 [Compound 174, N-(7-amino-1H-pyrazolo[3,4-c]pyridin-4-yl)-2-((2R,5S)-2-(benzo[d]thiazol-5-yl)-5-methylpiperidin-1-yl)-2-oxoacetamide] | < 5 | < 75 | C (“C” indicates an IC50 ratio of less than 15 fold) |  | < 100 | 5 to 50 |
| C[C@H]1CC[C@H](c2ccc(OC3CCN(C)CC3)cc2)N(C(=O)C(=O)Nc2cnc(N)c3cn[nH]c23)C1 [Compound 175, N-(4-amino-1H-pyrazolo[4,3-c]pyridin-7-yl)-2-((2R,5S)-5-methyl-2-(4-((1-methylpiperidin-4-yl)oxy)phenyl)piperidin-1-yl)-2-oxoacetamide] | 5 to 50 | < 75 | B (“B” indicates an IC50 ratio greater than or equal to 15 fold but lower than 30 fold) | > 50 | < 100 |  |
| C[C@H]1CC[C@H](c2ccc3cc(C#N)c(C4CCN(C)CC4)nc3c2)N(C(=O)C(=O)Nc2cncc3cn[nH]c23)C1 [Compound 176, 2-((2R,5S)-2-(3-cyano-2-(1-methylpiperidin-4-yl)quinolin-7-yl)-5-methylpiperidin-1-yl)-2-oxo-N-(1H-pyrazolo[4,3-c]pyridin-7-yl)acetamide] | < 5 | < 75 | B (“B” indicates an IC50 ratio greater than or equal to 15 fold but lower than 30 fold) | > 50 | < 100 |  |
| C[C@@H]1CC[C@H](c2ccnn2C)N(C(=O)C(=O)Nc2cnc(N)c3cn[nH]c23)C1 [Compound 178] | 5 to 50 | > 125 | C (“C” indicates an IC50 ratio of less than 15 fold) | > 50 | 100 to 1000 |  |
